The target of assay [1] is T1, native SARS-CoV-2 3CL^pro (Severe acute respiratory syndrome coronavirus 2, UniProt P0DTD1). In words: biochemical. The assay is classed as biochemical.
A further assay addresses wild-type 3CL^pro (Severe acute respiratory syndrome coronavirus 2, UniProt P0DTD1). As to the kind of experiment: biochemical. Format: binding, SARS-CoV-2. The following applies: K D (wt).
The test system of the next assay is SARS-CoV-2 3CL^pro. The following applies: cited from earlier work.
In assay [2] the target is T1, native SARS-CoV-2 3CL^pro. Format: biochemical.
Another assay relates to SARS-CoV 3CL^pro. The following applies: cited from earlier work.

Values joined by “and” are separate entries in the source; they are usually repeats but may differ in a detail not shown here. Equal entries are not always repeated.

Usually Ki stands for the equilibrium dissociation constant of an inhibitor or competing ligand from its target. Low readings indicate higher affinity, high ones lower affinity. A word on the Kd: it is a measure of binding affinity in units of concentration. Lower therefore signals higher affinity. The IC50 is the point on the concentration scale where inhibition reaches its midpoint. In assay [1], `O=C(Nc1ccc(N(Cc2ccsc2)C(=O)Cn2nnc3ccccc32)cc1)C1CC1` [ML300] registered a Ki of 6.2 ± 0.4 µM. The Kd at wild-type 3CL^pro is 7.5 µM and 3.6 µM. Besides, in the assay with SARS-CoV-2 3CL^pro, the “IC50” value was “low micromolar range”.

As to `CC(C)(C)c1ccc(N(C(=O)c2c[nH]cn2)[C@@H](C(=O)NC2CCCCC2)c2cccnc2)cc1` [X77], in assay [2], the “binding kinetics (fast or slow-binding)” value is “fast”, the “covalent or noncovalent inhibition” value is “noncovalent”, the “reduction of reaction rate vi with respect to v0” value is “ca. 70%” and the “reduction of thermal power minimum with respect to the noninhibited reaction” value is recorded as “ca. 40%”. For the same compound, the “tight or nontight binding” value in assay [2] was “nontight”. Moreover, in assay [1], the inhibition mode entry is reported as “predominantly competitive” and the α parameter stood at 16 ± 3. For the same compound, the half-maximal inhibitory concentration (IC50) in the assay on SARS-CoV 3CL^pro was 3.4 µM.

The values above are taken from PMC13347698 (Analytical Chemistry, 2026).
